What follows are molecules tested against T1, recombinant human mPGES-1 (Homo sapiens, UniProt O14684) (assay: Assay A: mPGES-1 enzyme assay (HTRF detection of PGE2)). Details: biological assay A; microsomes from E. coli expressing recombinant human mPGES-1; read-out: mPGES-1 inhibitory effect IC50.
T1 construct: made in house; host or cells: Rosetta E. coli (membrane/microsome fraction)
T1 sequence (O14684 1-152): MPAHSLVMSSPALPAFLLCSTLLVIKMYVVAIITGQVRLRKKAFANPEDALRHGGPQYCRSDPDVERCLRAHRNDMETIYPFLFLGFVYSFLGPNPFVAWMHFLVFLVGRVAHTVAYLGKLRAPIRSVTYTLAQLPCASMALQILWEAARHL
Type: biochemical
Text: The aim of this assay is to determine the affinity of a test compound for the mPGES-1 enzyme.
• 1. Riendeau, D., R. Aspiotis, D. Ethier, Y. Gareau, E. Grimm, J. Guay, S. Guiral, H. Juteau, J. Mancini, N. Methot, J. Rubin, and R. Friesen, Inhibitors of the inducible microsomal prostaglandin E2 synthase (mPGES-1) derived from MK-886. Bioorg Med Chem Lett, 2005. 15(14): p. 3352-3355. • 2. Cote, B., L. Boulet, C. Brideau, D. Claveau, D. Ethier, R. Frenette, M. Gagnon, A. Giroux, J. Guay, S. Guiral, J. Mancini, E. Martins, F. Masse, N. Methot, D. Riendeau, J. Rubin, D. Xu, H. Yu, Y. Ducharme, and R. Friesen, Substituted phenanthrene imidazoles as potent, selective, and orally active mPGES-1 inhibitors. Bioorg Med Chem Lett, 2007. 17(24): p. 6816-6820. Assay A: mPGES-1 Enzyme Assay List of Reagents Used: • Glutathione (Sigma, G-4251) • Freeze culture in Rosetta E coli expression strain. • LB growth media with Ampillicillin (Amp) final concentration in culture 50 μg/mL • Chloroamphenicol stock 34 mg/mL (chloro) final concentration in culture 34 μg/mL • Sterile growth flasks for 500 mL-1 liter cultures • 0.1 M KP, buffer pH 7.4 • 9.25% HCl • PGH2 (0.25 mM) • Fe (II) Cl2 tetrahydrate, 99% (Sigma, 220229) • 384-well plate with compounds • 96-well plate, polypropylene (Thermo fast 96 skirted VWR) • 384-well plate polypropylene PCR plate (Greiner 785201) • Greiner 384-well plate pp (In vitro cat. no. 781280) • Adhesive sealing film for 96-well plates (Sigma-Aldrich) • Aluminium foil (PCR foil, 310-0030-127-471 from Labora) • PBS (GIBCO 14040) • Prostaglandin E2 Assay (Cisbio, cat. no. 62P2APEC) • Biomek FX robot (Beckman Coulter) • Biomek NX robot (Beckman Coulter) • Multidrop; micro or combi (ThermoLabsystems) • Plate reader: Safire2 (Tecan)
Microsomes from Rosetta E. coli bacteria expressing recombinant human mPGES-1 can be derived as described below:
Inoculate 5 mL LB with Amp and Chloro with bacteria from freeze culture. Incubate overnight at 37° C. with 200 rpm. Thereafter, inoculate 500-800 mL LB containing Amp and Chloro with the 5 mL on culture and grow to OD640 of 0.6-0.8. Chill the culture to +4° C. before induction. Induce the culture with IPTG at a final concentration of 400 μM. Express the protein at room temp 18-23° C. with 200 rpm shaking overnight.
The following steps can be performed on the following day: • 1. Spin down the cells in 250 mL centrifuge flasks for 15 min at 7000 rpm • 2. Dissolve the pellet from 250 mL culture in 12.5 mL homogenization buffer • 3. Disintegrate the cells by sonication, 4×10 seconds at 35% amplitude • 4. Add 2.5 mL MgCl2 (100 mM) and DNase 12.5 μL (0.8 mg/mL) and incubate on ice for 30 min • 5. Spin down the bacteria debris and save the supernatant, 7000 rpm for 15 min • 6. Isolate the protein containing membranes in the supernatant by ultracentrifugation 45000×g for 1 hour. • 7. Discard the supernatant and dissolve the pellet in 20 mM KPi buffer and aliquot the enzyme and store aliquots at −80° C.
Before each experiment is performed an aliquot of the enzyme is thawed and it can then be dissolved in 0.1 M KP, pH 7.4 buffer containing 2.5 mM GSH. 50 μL of this enzyme solution is subsequently dispensed in a 384-well plate at room temperature. 0.5 μL of the inhibitor dissolved in DMSO is thereafter added to each well and incubated for 25 minutes at room temperature. Subsequently, 2 μL of PGH2 dissolved in an appropriate solvent is added to each well and after one minute at room temperature, the acidified stop solution containing FeCl2 is added. 4 μL of the total volume is transferred to a separate plate and diluted 750-fold in two separate steps before quantification of PGE2.
In order to quantitate the amount of PGE2 that has been formed, a homogenous time resolved fluorescent (HTRF) detection of PGE2 can be performed by the use of a commercially available kit from CisBio essentially according to the manufacturer's protocol. […]
`Cn1c(Nc2cc(CNC(=O)C(C)(N)C(F)(F)F)ccc2Cl)nc2cc(Cl)c(N3CCCC(C(F)(F)F)C3)cc21` (centres unmarked) [Example 1, 2-Amino-N-{4-chloro-3-[5-chloro-1-methyl-6-(3-(trifluoromethyl)piperidin-1-yl)-1H-benzo[d]imidazol-2-ylamino]benzyl}-3,3,3-trifluoro-2-methylpropanamide] showed an IC50 of 0.0025 µM.
In the case of `CC(C)(C)C(=O)NCc1ccc(Cl)c(Nc2nc3cc(N4CCC(F)(F)C4)c(Cl)cc3[nH]2)c1` [Example 2, N-{4-Chloro-3-[6-chloro-5-(3,3-difluoropyrrolidin-1-yl)-1H-benzo[d]imidazol-2-ylamino]benzyl}-2,2-dimethyl-propionamide], the IC50 is reported as 0.019 µM.
`CN(C)CC1CCN(c2cc3[nH]c(Nc4cc(CNC(=O)C(C)(C)C)ccc4Cl)nc3cc2Cl)C1` (centres unmarked) [Example 3, N-{4-Chloro-3-[5-chloro-6-(3-dimethylaminomethyl-pyrrolidin-1-yl)-1H-benzimidazol-2-ylamino]-benzyl}-2,2-dimethyl-propionamide] gave an IC50 of 0.715 µM.
Molecule `CC(C)(C)C(=O)NCc1ccc(Cl)c(Nc2nc3cc(Cl)c(N4CCC5(CC5)C4)cc3[nH]2)c1` [Example 4, N-{3-[6-(5-Aza-spiro[2.4]hept-5-yl)-5-chloro-1H-benzimidazol-2-ylamino]-4-chloro-benzyl}-2,2-dimethyl-propionamide] has an IC50 of 0.024 µM.
Work on `Cn1c(Nc2c(Cl)ccc(CNC(=O)C(C)(C)C)c2Cl)nc2cc(Cl)c(N3CCC(C(F)(F)F)CC3)cc21` [Example 5, N-{2,4-Dichloro-3-[5-chloro-1-methyl-6-(4-trifluoromethyl-piperidin-1-yl)-1H-benzimidazol-2-ylamino]-benzyl}-2,2-dimethyl-propionamide] yielded an IC50 of 0.0038 µM.
`CN(C)C(=O)C1CCCN1c1cc2[nH]c(Nc3cc(CNC(=O)C(C)(C)C)ccc3Cl)nc2cc1Cl` (centres unmarked) [Example 6, N-{4-Chloro-3-[5-chloro-6-(2-dimethylcarbamoyl-pyrrolidin-1-yl)-1H-benzimidazol-2-ylamino]-benzyl}-2,2-dimethyl-propionamide] showed an IC50 of 0.215 µM.
Molecule `CN(C)CC1CCCN1c1cc2[nH]c(Nc3cc(CNC(=O)C(C)(C)C)ccc3Cl)nc2cc1Cl` (centres unmarked) [Example 7, N-{4-Chloro-3-[5-chloro-6-(2-dimethylaminomethyl-pyrrolidin-1-yl)-1H-benzimidazol-2-ylamino]-benzyl}-2,2-dimethyl-propionamide] has an IC50 of 0.074 µM.
Molecule `CC(C)(C)C(=O)NCc1ccc(Cl)c(Nc2nc3cc(Cl)c(N4CCC(C#N)C4)cc3[nH]2)c1` (centres unmarked) [Example 8, N-{4-Chloro-3-[5-chloro-6-(3-cyano-pyrrolidin-1-yl)-1H-benzimidazol-2-ylamino]-benzyl}-2,2-dimethyl-propionamide] has an IC50 of 0.106 µM.
In the case of `O=C(NCc1ccc(Cl)c(Nc2nc3cc(Cl)c(N4CCC[C@@H]4CO)cc3[nH]2)c1)C1(C(F)(F)F)CC1` [Example 9, (R)—N-{4-Chloro-3-[5-chloro-6-(2-hydroxymethyl-pyrrolidin-1-yl)-1H-benzimidazol-2-ylamino]-benzyl}-1-trifluoromethyl-cyclopropanecarboxamide], the IC50 is reported as 0.143 µM.
Molecule `Cn1c(Nc2cc(CNC(=O)C3(C(F)(F)F)CC3)ccc2Cl)nc2cc(Cl)c(N3CCOCC3)cc21` [Example 10] has an IC50 of 0.031 µM.
For `CN1CCN(c2cc3c(cc2Cl)nc(Nc2cc(CNC(=O)C4(C(F)(F)F)CC4)ccc2Cl)n3C)CC1` [Example 11, N-{4-Chloro-3-[5-chloro-1-methyl-6-(4-methyl-piperazin-1-yl)-1H-benzimidazol-2-ylamino]-benzyl}-1-trifluoromethyl-cyclopropanecarboxamide], the IC50 was 0.14 µM.
For `CC(C(=O)NCc1ccc(Cl)c(Nc2nc3cc(Cl)c(N4CCCC(C(F)(F)F)C4)cc3n2C)c1)C(F)(F)F` (centres unmarked) [Example 13], the IC50 was 0.0026 µM.
With `Cn1c(Nc2cc(CNC(=O)C(C)(O)C(F)(F)F)ccc2Cl)nc2cc(Cl)c(N3CCCC(C(F)(F)F)C3)cc21` (centres unmarked) [Example 14] the IC50 was 0.0048 µM.
Work on `Cn1c(Nc2cc(CNC(=O)C(C)(F)F)ccc2Cl)nc2cc(Cl)c(N3CCCC(C(F)(F)F)C3)cc21` (centres unmarked) [Example 15] yielded an IC50 of 0.003 µM.
`CCC(C)(CC)C(=O)NCc1ccc(Cl)c(Nc2nc3cc(N4CCCC4)ccc3[nH]2)c1` [Example 16] was tested, and the IC50 was 0.015 µM.
`CC(C)(C(=O)NCc1ccc(Cl)c(Nc2nc3cc(N4CCCC4)ccc3[nH]2)c1)C(F)(F)F` [Example 17] gave an IC50 of 0.024 µM.
In the case of `CCCC(C)(C)C(=O)NCc1ccc(Cl)c(Nc2nc3cc(N4CCCC4)ccc3[nH]2)c1` [Example 18], the IC50 is reported as 0.079 µM.
In the case of `CC1CCCCC1C(=O)NCc1ccc(Cl)c(Nc2nc3cc(N4CCCC4)ccc3[nH]2)c1` (centres unmarked) [Example 19], the IC50 is reported as 0.052 µM.
For `CC(C)(C)C(=O)NCc1ccc(Cl)c(Nc2nc3cc(N4CCCC4)ccc3[nH]2)c1` [Example 20], the IC50 was over 0.1 µM.
Work on `O=C(NCc1ccc(Cl)c(Nc2nc3cc(N4CCCC4)ccc3[nH]2)c1)c1ccc(OCc2ccccc2)cc1` [Example 21] yielded an IC50 of 0.03 µM.
Work on `CC1(C(=O)NCc2ccc(Cl)c(Nc3nc4cc(N5CCCC5)ccc4[nH]3)c2)CCCC1` [Example 28] yielded an IC50 of 0.024 µM.
In the case of `O=S(=O)(NCc1ccc(Cl)c(Nc2nc3cc(N4CCCC4)ccc3[nH]2)c1)c1ccco1` [Example 29], the IC50 is reported as 0.105 µM.
For `O=S(=O)(NCc1ccc(Cl)c(Nc2nc3ccc(N4CCCC4)cc3[nH]2)c1)C1CC1` [Example 30, N-{4-Chloro-3-[5-(pyrrolidin-1-yl)-1H-benzimidazol-2-ylamino]-benzyl}cyclopropylsulfonamide], the IC50 was 0.3 µM.
`Cn1c(Nc2cc(CNC(=O)c3c(Cl)cncc3Cl)ccc2Cl)nc2cc(Cl)c(N3CCCC(C(F)(F)F)C3)cc21` (centres unmarked) [Example 54] gave an IC50 of 0.0066 µM.
With `Cn1c(Nc2cc(CNC(=O)C(N)C(F)(F)F)ccc2Cl)nc2cc(Cl)c(N3CCCC(C(F)(F)F)C3)cc21` (centres unmarked) [Example 65] the IC50 was 0.015 µM.
Work on `Cn1c(Nc2cc(CNC(=O)C3(C)COC3)ccc2Cl)nc2cc(Cl)c(N3CCCC(C(F)(F)F)C3)cc21` (centres unmarked) [Example 66] yielded an IC50 of 0.01 µM.
With `Cn1c(Nc2cc(CNC(=O)c3c(Cl)cccc3Cl)ccc2Cl)nc2cc(Cl)c(N3CCCC(C(F)(F)F)C3)cc21` (centres unmarked) [Example 68] the IC50 was 0.004 µM.
`Cn1c(Nc2cc(CNC(=O)c3c(F)cccc3C(F)(F)F)ccc2Cl)nc2cc(Cl)c(N3CCCC(C(F)(F)F)C3)cc21` (centres unmarked) [Example 69] was tested, and the IC50 was 0.009 µM.
In the case of `Cn1c(Nc2cc(CNC(=O)C3(C(F)(F)F)CC3)ccc2Cl)nc2cc(Cl)c(N3CCC(C(F)(F)F)CC3)cc21` [Example 71, N-{4-Chloro-3-[5-chloro-1-methyl-6-(4-trifluoromethyl-piperidin-1-yl)-1H-benzimidazol-2-ylamino]benzyl}-1-trifluoromethyl-cyclopropaneamide], the IC50 is reported as 0.0025 µM.
In the case of `O=C(NCc1ccc(Cl)c(Nc2nc3cc(Cl)c(N4CCCC(C(F)(F)F)C4)cc3[nH]2)c1)C1(C(F)(F)F)CC1` (centres unmarked) [Example 72], the IC50 is reported as 0.011 µM.
Molecule `CC(=O)N1CCN(c2cc3c(cc2Cl)nc(Nc2cc(CNC(=O)C4(C(F)(F)F)CC4)ccc2Cl)n3C)CC1` [Example 73] has an IC50 of 0.061 µM.
For `CC(=O)N1CCN(c2cc3[nH]c(Nc4cc(CNC(=O)C5(C(F)(F)F)CC5)ccc4Cl)nc3cc2Cl)CC1` [Example 74], the IC50 was 0.144 µM.
